System: C57BL/6J mice
Experiment: Mouse model of LPV, DHA cream (Example 4)
Format: in vivo
Excerpt: A total of 36 C57BL/6J mice were subjected to 6 weeks of allodynia induction using the protocol described above. Briefly, zymosan was used to induce sustained vulvar allodynia, measured by pain threshold testing. An electronic vonFrey system (MOUSEMET™, Topcat Metrology) was used to apply gradually increasing force to the vulva at the injection site, located at the midline posterior vulvar (between the vaginal opening and anus) (FIG. 7A). The hair was applied perpendicular to the vulvar surface with a gradually increasing force within a range of 0.100 g to 7.0 g (FIG. 7B). A positive response was defined as either (1) a reflexive, coordinated four extremity extension, (2) jump, or (3) immediate grooming of the vulva in response to vulvar stimulus, at which point the peak force was recorded.
During allodynia induction, mice receive weekly injections of zymosan (10 mg/ml in 10 μl saline) for a maximum of 6 injections, until a >33% reduction in pain threshold is observed for 2 consecutive weeks of testing (FIG. 7C). Pain threshold testing was performed at the same time every week, immediately prior to zymosan injection; after the first 2 weeks of injections, a determination of threshold change was performed after pain testing to determine which mice would receive additional zymosan injections. […]

CC/C=C\C/C=C\C/C=C\C/C=C\C/C=C\C/C=C\CCC(=O)O [DHA, docosahexaenoic acid]
mice recovered from allodynia (DHA cream group (12 mice), after 6 weeks of treatment, recovery = 70% improvement over lowest pain threshold for 2 consecutive tests): 9 mice | first week at which mice began to recover (DHA group, week = first week of a two-week period with 70% improvement, FIG. 13): 1 week
